Among the data in patent publication US20250057859A1, “CANNABICHROMENEQUINONE AND ANALOGUES THEREOF, AND METHOD OF USING COMPOSITIONS THEREOF AS ANTI-INFLAMMATORY AGENTS” (Juva Life, Inc., priority 2021, published 2025) are IC50 values, retold here.

The structures appear in SMILES notation. Where only a bound is given, the exact number is not on record here.

One test deals with TNFα. Kind of test: TNFa secretion assay in human PBMCs (LPS-stimulated, ELISA). It counts as cell-based. Particulars: PBMC, LPS 100 ng/mL 6 hr, read-out: TNF inhibitory activity IC50. The method, then: (§1) Fetal bovine serum (FBS) was obtained from ThermoFisher (Cat #16000044). • Other reagents: 96well TC plates were obtained from ThermoFisher (Cat #07-2000-90). LPS was obtained from Sigma (Cat #L3024).
(§2) TNF-alpha was assessed using a standard ELISA protocol. Cryopreserved PBMCs were thawed in a water bath and transferred to 50 mL polypropylene tubes. The cells were washed two times with 25 mL of RPMI medium supplemented with 5% of heat-inactivated FBS and re-suspended at a density of 4.5^10^6 cells/mL. The cells were plated into 96 well TC late (100 uL/well). Serially diluted compound was added to the cells in duplicate wells for each concentration. Control wells received DMSO only (0.3% final). The cells were pre-incubated with compound for 1 hr. After pre-incubation, the cells were stimulated by LPS (100 ng/mL) for 6 hr. Control samples with and without LPS in the absence of compound were assembled in each test plate. TNFa was detected in media supernatants by using a sandwich anti-TNFα ELISA kit (BD Biosciences) according to protocol provided by the manufacturer. ELISA readout (optical density at 450 nm) is commensurable with the amount of TNFα produced by the cells. Assay window was determined in each experiment by comparing average OD450 values in stimulated and un-stimulated samples in the absence of compound. ELISA calibration was performed in each detection plate using serially diluted recombinant human TNFα, to ensure that OD450 values for all test samples were within linear range of detection.%-Inhibition by compound was calculated using following equation:
(§3) [formula] • where OD450100% is optical density in control samples stimulated with LPS without compound, OD4500% is optical density in unstimulated control samples, and OD450compound is optical density in a sample stimulated with LPS in the presence of compound.
(§4) The calculated %-Inh values were plotted against compound concentration. To determine IC50 values, dose-response curves were fitted by a 4-parameter sigmoid inhibition model using XLFit® software (IDBS).

Another test has as its system IL-6. Description: IL-6 secretion assay in human PBMCs (LPS-stimulated, ELISA). The format is cell-based. Particulars: PBMC, LPS 100 ng/mL 6 hr, read-out: IL6 inhibitory activity IC50. Here is the method: as §1
as §2, with “IL-6” for “TNF-alpha”, “IL-6” for “TNFa”, “anti-IL-6” for “anti-TNFα”, “IL-6” for “TNFα”, “IL-6,” for “TNFα,”
as §3, §4

Another test deals with IL-1β. Description: Inhibitory activity on IL-1β.
In another test the test system is IFN gamma. Kind of test: IFN gamma secretion assay in human PBMCs (PHA-M-stimulated, ELISA). Particulars: PBMC, PHA-M 10 ug/mL 40 hr, read-out: IFNγ inhibitory activity IC50. It counts as cell-based. The method, then:
Fetal bovine serum (FBS) was obtained from ThermoFisher (Cat #16000044). • Other reagents: 96well TC plates were obtained from ThermoFisher (Cat #07-2000-90).
IFN-gamma was assessed using a standard ELISA protocol. Cryopreserved PBMCs were thawed in a water bath and transferred to 50 mL polypropylene tubes. The cells were washed two times with 25 mL of RPMI medium supplemented with 5% of regular FBS and re-suspended at a density of 1.5^10^6 cells/mL. The cells were plated into 96 well TC late (100 uL/well). Serially diluted compound was added to the cells in duplicate wells for each concentration. Control wells received DMSO only (0.3% final). The cells were pre-incubated with compound for 2 hr. After pre-incubation, the cells were stimulated by PHA-M (10 ug/mL) for 40 hr. Control samples with and without PHA-M in the absence of compound were assembled in each test plate. IFNg was detected in media supernatants by using a sandwich anti-IFNg ELISA kit (BD Biosciences) according to protocol provided by the manufacturer. ELISA readout (optical density at 450 nm) is commensurable with the amount of IFNg produced by the cells. Assay window was determined in each experiment by comparing average OD450 values in stimulated and un-stimulated samples in the absence of compound. ELISA calibration was performed in each detection plate using serially diluted recombinant human IFN gamma, to ensure that OD450 values for all test samples were within linear range of detection.%-Inhibition by compound was calculated using following equation:
[formula] • where OD450100% is optical density in control samples stimulated with PHA-M without compound, OD4500% is optical density in unstimulated control samples, and OD450compound is optical density in a sample stimulated with PHA-M in the presence of compound.
as §4

With `CCCCCC1=CC(=O)C2=C(OC(C)(CCC=C(C)C)C=C2)C1=O` (centres unmarked) [Formula II], the half-inhibitory concentration (IC50) in the test on TNFα turned out to be 0.93 µM; in the test on IL-6, 1.2 µM; in the test with IL-1β, 1.72 µM; in the test with IFN gamma it was 0.39 µM.
On the same counts, the results for `CCCCCc1cc(OC)c2c(c1OC)OC(C)(CCC=C(C)C)C=C2` (centres unmarked) [Formula XXIV] are 10.6 µM, 14.4 µM, > 10 µM and 4.2 µM.
On the same counts, the results for `CCCCCc1cc(OC(C)=O)c2c(c1OC(C)=O)OC(C)(CCC=C(C)C)C=C2` (centres unmarked) [Formula XXIII] are 9.95 µM, 8.7 µM, 0.97 µM and 0.48 µM.
On the same counts, the results for `CCCCCC1=C(NCCC)C(=O)C2=C(OC(C)(CCC=C(C)C)C=C2)C1=O` (centres unmarked) [Formula XXV] are 9 µM, 9.3 µM, > 10 µM and > 10 µM.
`CC(C)=CCCC1(C)C=CC2=C(O1)C(=O)c1ccccc1C2=O` (centres unmarked) [Formula XXVII]: the IC50 in the test with TNFα, in the test with IL-6, in the test on IL-1β and with IFN gamma was > 10 µM in each case.
As to `CCCCCc1cc(O)c2c(c1O)OC(C)(CCC=C(C)C)C=C2` (centres unmarked) [Formula XXII], the half-inhibitory concentration (IC50) is 9.2 µM in the test with TNFα, > 10 µM with IL-6, 3.3 µM in the test with IL-1β and 1.97 µM with IFN gamma.
On the same counts, the results for `CCCCCC1=CC(=O)C2=C(O[C@](C)(CCC=C(C)C)C=C2)C1=O` [Formula XXVI] are 0.62 µM, 1.07 µM, 0.54 µM and 0.31 µM.
For the compound `CCCCCC1=C(NCC)C(=O)C2=C(OC(C)(CCC=C(C)C)C=C2)C1=O` (centres unmarked) [Formula XXVIII], the 50% inhibitory concentration (IC50) with TNFα, in the test with IL-6, in the test on IL-1β and in the test with IFN gamma was > 10 µM each time.
